Assay results from PubChem BioAssay (NCI).
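Five compound concentrations were applied to cells in 96-well plates for 48 hours; endpoints were derived by simple linear interpolation of the resulting dose-response curve. TGI: concentration producing complete growth inhibition.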

Key:
Assay in all cases: NCI tumour cell line growth inhibition, 48 h
LXFL 529 NSCLC = tested on: LXFL 529 NSCLC
ACHN renal = tested on: ACHN renal
DMS 273 small cell lung = tested on: DMS 273 small cell lung
KM20L2 colon = tested on: KM20L2 colon
DLD-1 colon = tested on: DLD-1 colon
XF 498 CNS = tested on: XF 498 CNS
P388 leukemia = tested on: P388 leukemia
SN12K1 renal = tested on: SN12K1 renal
P388/ADR leukemia = tested on: P388/ADR leukemia
HS 578T breast = tested on: HS 578T breast

Compound	TGI (LXFL 529 NSCLC) [µM]	TGI (ACHN renal) [µM]	TGI (DMS 273 small cell lung) [µM]	TGI (KM20L2 colon) [µM]	TGI (DLD-1 colon) [µM]	TGI (XF 498 CNS) [µM]	TGI (P388 leukemia) [µM]	TGI (SN12K1 renal) [µM]	TGI (P388/ADR leukemia) [µM]	TGI (HS 578T breast) [µM]
O=C(O)C12CCCCC1CCCC2 (centres undefined)	> 100	> 100	> 100	> 100	> 100	> 100				
COc1cccc(NC(=O)C(=O)C(C(=O)c2ccccc2F)C2OC(=O)c3ccccc32)c1 (centres undefined)	> 100	> 100	> 100	> 100	> 100					
CSc1nc2c(ncn2C2OCC(O)C(O)C2O)c(=O)n1C (centres undefined)			> 100	> 100	> 100	> 100	> 100	> 100	> 100	
COC(=O)C1=C(OC(=O)/C=C/c2ccc(Cl)cc2)C(C(=O)OC)[C@@]2(O)[C@@H](C(=O)OC)[C@H](C)C[C@@H]1[C@@H]2C(=O)OC (some centres undefined)		80								15.5
COc1cc2c(cc1OC)C(=O)/C(=C/c1cc(OC)c(OC)c(OC)c1)C2										> 100
O=C1C(Cl)N(c2cccc([N+](=O)[O-])c2)C1c1c[nH]c2ccccc12 (centres undefined)	20.4			53.6						
COC1(O)c2cccc(Cl)c2C(=O)N1C1(C(N)=O)CCCCC1 (centres undefined)			> 100	> 100	> 100	> 100	> 100	> 100	> 100	
COc1ccc2[nH]c3c(C)c4ccnc(NCCCN(C)CCCNc5ccc6ncn7c8ccccc8c(=O)c5c67)c4c(C)c3c2c1		0.918								25
NC12CCC(CC1=O)C2 (centres undefined)		> 100								> 100
